Measurements as given in patent US11390591B2, “2,4,6-trisubstituted s-triazine compound, preparation method therefor, and use thereof” (Aluda Pharmaceuticals, Inc., priority 2016, dated 2022).
Like-named read-outs stand apart in the source and are kept apart here.

Legend:
Type in all cases: cell-based
[1] = tested on: cell lines of human non-small cell lung cancer (H522); assay: In vitro antineoplastic activity, MTT experiment, H522; conditions: H522 cells, 48 hours, highest concentration tested 31.6 μM (>30: inhibition rate <50%)
Protocol: (§1) MTT, RPM1640 culture medium, fetal bovine serum, 96-well plate, CO2 thermostatic incubator, American BIO-RAD680 microplate reader, cell lines of human non-small cell lung cancer (H522), and cell lines of human brain glioma (U87) were all obtained commercially.
(§2) (1) Cell inoculation: A single cell suspension was prepared with culture media supplemented with 10% fetal bovine serum, plated into a 96-well plate with 5000 cells per well, each well having a volume of 100 μL, and cultured overnight.
(§3) (2) Preparation of compound solutions: a DMSO stock solution of a compound was diluted on a sterile bench with a culture medium into 5 concentrations to be tested, wherein a double dilution was employed between two adjacent concentrations.
(§4) (3) The compound solutions of various concentrations were added into the 96-well plate cultured overnight, with 100 μL added per well, triplicated wells for each concentration. Since the peripheral wells can have edge effect and are susceptible to contamination, no cells or compounds were added thereto; instead, 100 μL culture solution was added as a blank. Additionally, 100% wells were set to contain the cells and 100 μL culture media without any compound. The plates were incubated in a thermostatic incubator at 37° C. for 48 hours.
(§5) (4) Staining: 10 μL MTT solution (5 mg/mL, prepared with PBS) was added into the 96-well plate for staining. After incubation for 4 hours, centrifugation was performed at 2500 rpm for 10 minutes. Then, a multiple pipette was used to suck the culture solution out of the wells carefully without sucking out the cells while the pipette tip faced downward. 150 μL DMSO was added and shaken on a shaker for 5-10 minutes. Crystals were allowed to dissolve fully, and an OD value for each well was measured using the microplate reader at 570 nm. The inhibition rate was calculated as follows: Inhibition rate (%)=(average OD value of 100% wells−average OD value of compound wells)/(average OD value of 100% wells−average OD value of blank wells)×100%

[2] = tested on: cell lines of human brain glioma (U87); assay: In vitro antineoplastic activity, MTT experiment, U87
Protocol: as §1, §2, §3, §4, §5

human glioma U87 cells = assay: Tumor cell vacuolization (methuosis) scoring, U87; parameters: key to Vacuolation Score: 5 scores were given when obvious vacuolization occurred at 10 nM; 4 scores at 31.6 nM; 3 scores at 100 nM; 2 scores at 316 nM; 1 score at 1000 nM; 0 score was given if no vacuolation occurred at any concentration; conditions: U87 cells; for Vacuolation Score: 0.01-3.160 μM, 96 hours, microscope
Protocol: FIG. 2. Vacuolization of tumor cells. 100 microliter culture medium (RPMI1640, 2 mmol glutamine, 10% fetal bovine serum) containing 10^3 human colon adenocarcinoma cells (HCT15) or human brain glioma cells (U87) and a solvent DMSO control or 100 nM #40 compound (L16) was plated into a 96-well cell culture plate, and cell morphological image was taken under a phase contrast microscope after cultured at 5% CO2 and 37° C. for 96 hours.
Some cells gradually became round and eventually bursted. These changes are consistent with the features of cell death by methuosis (FIG. 2).
In order to compare the ability of different compounds to cause cell vacuolization, 100 μL culture media (RPMI1640, 2 mmol glutamine, 10% fetal bovine serum) comprising 10^3 human glioma U87 cells and final concentrations of 0.01, 0.0316, 0.1, 0.316, 1.0, 3.160 μM respectively of the compounds to be tested were inoculated into a 96-well culture plate. After cultured at 5% CO2 and 37° C. for 96 hours, cell morphology was observed under a high-magnification microscope, and the ability of the compounds to cause cell vacuolization was scored. 5 scores were given when obvious vacuolization occurred at 10 nM, 4 scores at 31.6 nM, 3 scores at 100 nM, 2 scores at 316 nM, 1 score at 1000 nM, and 0 score was given if no vacuolation occurred at any concentration.

[3] = U87 cells, MTT, 48 hours, highest concentration tested 31.6 μM, read-out: IC50(μM) U87
[4] = ability to inhibit cell proliferation, U87 (FIG. 3), unit inferred, read-out: IC50

IC50 [1] | IC50 [2, 3] | IC50 [2, 4] | IC50 ([2]; Homo sapiens, ability to inhibit cell proliferation, U87 (FIG. 3), unit inferred, read-out: IC50) | Compound | Vacuolation Score (human glioma U87 cells) | ability to cause cell vacuolization (in words) (human glioma U87 cells; among the compounds tested)
3.26 ± 0.34 µM | 4.79 ± 0.55 µM | 3.53 µM |  | O=C(Nc1ccc(Cl)cc1)Nc1ccc(Nc2nc(/C=C/c3ccccc3)nc(N3CCOCC3)n2)cc1 [L1, (E)-1-(4-chlorophenyl)-3-(4-(4-(morpholin-1-yl)-6-styrenyl-1,3,5-triazinyl-2-amino)phenyl)urea] | 5 (5 scores were given when obvious vacuolization occurred at 10 nM) | strongest ability to cause cell vacuolization
2.8 ± 0.21 µM | 4.75 ± 0.87 µM | 4.74 µM |  | O=C(Nc1ccc(F)cc1)Nc1ccc(Nc2nc(/C=C/c3ccccc3)nc(N3CCOCC3)n2)cc1 [L2, (E)-1-(4-fluorophenyl)-3-(4-(4-(morpholin-1-yl)-6-styrenyl-1,3,5-triazinyl-2-amino)phenyl)urea] | 4.5 | 
> 30 µM | 10.6 ± 1.2 µM | > 10 µM |  | CN1CCN(c2nc(/C=C/c3ccccc3)nc(Nc3ccc(NC(=O)Nc4ccc(Cl)cc4)cc3)n2)CC1 [L3, (E)-1-(4-chlorophenyl)-3-(4-(4-(4-methylpiperazin-1-yl)-6-styrenyl-1,3,5-triazinyl-2-amino)phenyl)urea] | 0 | 
1.92 ± 0.19 µM | 1.19 ± 0.07 µM | 1.19 µM |  | CN1CCN(c2nc(/C=C/c3ccccc3)nc(Nc3ccc(NC(=O)Nc4ccc(F)cc4)cc3)n2)CC1 [L4, (E)-1-(4-fluorophenyl)-3-(4-(4-(4-methylpiperazin-1-yl)-6-styrenyl-1,3,5-triazinyl-2-amino)phenyl)urea] | 0 | 
5.03 ± 0.89 µM | 3.32 ± 0.45 µM | 3.28 µM |  | O=C(Nc1ccc(Cl)cc1)Nc1ccc(Nc2nc(/C=C/c3ccccc3)nc(N3CC(O)C3)n2)cc1 [L5, (E)-1-(4-chlorophenyl)-3-(4-(4-(3-hydroxyazetidin-1-yl)-6-styrenyl-1,3,5-triazinyl-2-amino)phenyl)urea] | 0 | 
5.25 ± 0.45 µM | 3.63 ± 0.11 µM | 3.63 µM |  | O=C(Nc1ccc(Cl)cc1)Nc1ccc(Nc2nc(/C=C/c3cccc(Cl)c3)nc(N3CCOCC3)n2)cc1 [L6, (E)-1-(4-chlorophenyl)-3-(4-(4-(morpholin-1-yl)-6-(3-chlorostyrenyl)-1,3,5-triazinyl-2-amino)phenyl)urea] | 4 (4 scores at 31.6 nM) | 
1.42 ± 0.12 µM | 1.33 ± 0.13 µM | 1.32 µM |  | O=C(Nc1ccc(F)cc1)Nc1ccc(Nc2nc(/C=C/c3cccc(Cl)c3)nc(N3CCOCC3)n2)cc1 [L7, (E)-1-(4-fluorophenyl)-3-(4-(4-(morpholin-1-yl)-6-(3-chlorostyrenyl)-1,3,5-triazinyl-2-amino)phenyl)urea] | 4 (4 scores at 31.6 nM) | 
1.82 ± 0.09 µM | 1.21 ± 0.16 µM | 1.21 µM |  | CN1CCN(c2nc(/C=C/c3cccc(Cl)c3)nc(Nc3ccc(NC(=O)Nc4ccc(Cl)cc4)cc3)n2)CC1 [L8, (E)-1-(4-chlorophenyl)-3-(4-(4-(4-methylpiperazin-1-yl)-6-(3-chlorostyrenyl)-1,3,5-triazinyl-2-amino)phenyl)urea] | 0 | 
3.88 ± 0.65 µM | 1.47 ± 0.12 µM | 1.47 µM |  | CN1CCN(c2nc(/C=C/c3cccc(Cl)c3)nc(Nc3ccc(NC(=O)Nc4ccc(F)cc4)cc3)n2)CC1 [L9, (E)-1-(4-fluorophenyl)-3-(4-(4-(4-methylpiperazin-1-yl)-6-(3-chlorostyrenyl)-1,3,5-triazinyl-2-amino)phenyl)urea] | 2 (2 scores at 316 nM) | 
 |  |  |  | O=C(Nc1ccc(Nc2nc(/C=C/c3ccccc3)nc(N3CCOCC3)n2)cc1)Nc1ccc(C(=O)O)cc1 [compound 14, (E)-1-(4-carboxyphenyl)-3-(4-(4-(morpholin-1-yl)-6-styrenyl-1,3,5-triazinyl-2-amino)phenyl)urea] | 1.5 | 
 |  |  | 3.28 µM | Cl.O=C(Nc1ccc(Cl)cc1)Nc1ccc(Nc2nc(/C=C/c3cccc([N+](=O)[O-])c3)nc(N3CCOCC3)n2)cc1 [compound 68] | 4 (4 scores at 31.6 nM) | 
